From a melting point compilation (Tetko et al.; mined from patent text by program, amines drawn as free bases though some values may be those of a salt)

melting point [°C] | SMILES
90 to 100 | COc1cc(-c2cc(=Nc3c(C)cc(C)cc3C)n(C)c(=O)n2C)ccc1O
228 to 229 | CCOc1ccc(-c2ccc(N3CC(CNC(C)=O)OC3=O)cc2)ccc1=O (configuration not stated)
190 to 191 | Cc1ccc(NC(=O)c2cccc(C(F)(F)F)c2)cc1NC(=O)N(C)c1cc(Nc2ccc(N3CCN(C)CC3)cc2)ncn1
116 | O=C1C(=O)N(c2cccc(C(F)(F)F)c2)C(=O)N1c1ccccc1
225 to 228 | Nc1ccc(C(=O)N2Cc3cccn3-c3ccccc32)cc1
65 to 68 | CCC(C)Oc1ccc(OCCNC(=O)C2CC2)cc1 (configuration not stated)
147 to 150 | CCn1c(-c2ccc(OC)c(OC)c2)cc(=S)n(C)c1=O
208 to 209 | CC(=O)c1ccc(NC(=O)N2CCN(c3ncnc4c(Cl)cccc34)CC2)cc1
156 to 158 | CN1C(=N)CN(c2ccccc2)C1=O
> 300 | Nc1nc(N)c(NC=O)c(Cl)n1
171 to 172 | CC1(CNC(=O)OCc2ccccc2)Cn2cc([N+](=O)[O-])nc2O1 (configuration not stated)
184 | CCOC(=O)c1c(O)n(C)c2cc(-c3ccncc3)ccc2c1=O
85 to 87 | CCCc1c(OCCCCCCc2cccc(OCCCC(C)(C)C(=O)O)c2CCC(=O)O)ccc2c1OCCC2=O
169 | Cc1cc(COc2ccc(C(=O)NC[C@](O)(C(N)=O)N3CCN(Cc4ccccc4)CC3)cc2)c2ccccc2n1
182 to 184 | COc1ccc(CN2CCN(c3nc(C)c(C(N)=O)s3)C2=O)cc1F
235 to 238 | N#Cc1cccc(-c2cc(-c3ccc(C#N)cc3[N+](=O)[O-])no2)c1
241 to 242 | Cn1cc(S(C)(=O)=O)c(=O)c2ccc(Cl)cc21
139 to 140 | COc1ccc(C(Cc2cc(Cl)nc(Cl)c2)=NO)cc1OC1CCCC1
152 to 153 | CN1C(=O)CC(c2ccccc2)C1C(O)C#Cc1ccccc1 (configuration not stated)
162 to 164 | CC1=CC(=O)c2nc3n(c2C1=O)CCC3
205 to 207 | CC(C(=O)O)c1ccc2c(c1)Cc1cc(O)ccc1-2 (configuration not stated)
193 to 194 | O=c1[nH]nc(Cc2ccncc2)c2c1CCCC2
198 to 199 | CCN(CC)C(=O)[C@@H](C)[C@H]1CC[C@H]2[C@@H]3CCC4=CC(=O)CC[C@]4(C)[C@H]3CC[C@]12C

melting point [°C] | SMILES
98 to 100 | Cc1cccc(S(=O)(=O)n2ccc(Br)c2)c1C#N
150 | CCCc1nc(C)n2nc(N)nc2c1Cc1ccc(-c2ccccc2C#N)cc1
152 to 154 | CCc1cccc(CC)c1-n1c(C(=O)O)cnc1SCc1ccccc1
> 300 | N#CC1(C#N)CN=C(O)C(c2cc(O)c(O)c([N+](=O)[O-])c2)=N1
98 | Cc1coc(NC(=O)CCCCl)n1
106 to 109 | Cc1ccc(C(=O)CCCOC(=O)Nc2ccccc2)cc1
150 | Cn1nc(Br)c([N+](=O)[O-])c1NCCO
286 to 287 | CCCc1c[nH]c(=O)[nH]c1=O
199 to 200 | NS(=O)(=O)c1cc2ccccc2n1S(=O)(=O)c1ccccc1
132 | CN1C(=O)c2c(F)c(F)c(F)c(F)c2C1=O
< 24 | CCOCCOCCOCCOc1cc(OCCCCCCCCCCCCOc2ccccc2)cc(N(CC(=O)OC)CC(=O)OC)c1
101 to 104 | Cc1c(CN(C)C)cc(C(C)(C)C)c(O)c1C
118 to 120 | CC(C)n1nc(-c2sc(C(=O)NC3CC3)nc2-c2cccc(Cl)c2)ccc1=O
45 to 56 | CCOc1ccc(C(=O)N(CC)CC)c(OCC)c1
148 to 150 | CC(C)(CO)COc1ccc(NC(=O)c2csc3c2CCCC3)cc1C#N
189 to 190 | Cc1ccc(C)n1NC(=O)COc1ccc(C2=NNC(=O)NC2C)cc1Cl (configuration not stated)
128 to 130 | COc1cccc2c1C(C)C(=O)N2 (configuration not stated)
82.5 to 83.5 | COC12CC(C)(C)C(O)C(C=C1C)O2 (configuration not stated)
58 to 59 | CCCCCC(=O)C=Cc1ccc(CCCCCCCC(=O)O)o1
168 to 170 | Nc1ccccc1NC(=O)c1ccc(CCC(=O)NCc2cccnc2)cc1
168 to 169 | CC(C)c1cccc(C(C)C)c1NC(=O)NCC1(c2ccccc2)CCCCC1
200 to 202 | C=CC(=O)NCCOc1ccc2c(c1)nc(N)c1nc(CCC)sc12
> 270 | CCn1c(=O)c2[nH]c(/C=C/c3ccc(F)c(Cl)c3)nc2n(CC)c1=O

melting point [°C] | SMILES
60 to 64 | O=C([C@H](Cc1ccccc1)NC1CCCCC1)N1CCN(C(c2ccc(F)cc2)c2ccc(F)cc2)CC1
209 to 211 | CCOC(=O)NN=Cc1nc(-c2ccccc2)[nH]c1C
213 to 214 | COC(=O)c1ccccc1S(=O)(=O)NC(=O)Nc1nc(Cl)cn(C)c1=O
141 to 145 | CC1(C)CON(Cc2ccc(N3C(=O)c4ccccc4C3=O)cc2Cl)C1=O
128 to 131 | CCc1nccc(NC(=O)Cc2ccc(Oc3ccc([N+](=O)[O-])cn3)cc2)c1Cl
128 to 130 | COC(=O)C(C)(C)OCc1cc2cc(Cl)ccc2n1S(=O)(=O)c1ccc2c(c1)CCN2C(C)=O
134 | CC(C)(C)c1ccc(C(=O)CCCCCC2CCCCC2)cc1NC(=O)CC1c2ccccc2Oc2ccccc21
50 to 52 | O=C(CC(=O)OCc1ccc([N+](=O)[O-])cc1)CC1CC(=O)N1 (configuration not stated)
189 | COc1ccc2c(c1)c1cc(-c3cc(F)cc(F)c3)c(=O)n(C)c1n2C
245 | CN1CCN(c2ccc(-c3[nH]nc4c3C(=O)c3c(NC(=O)NN5CCOCC5)cccc3-4)cc2)CC1
214 | CC(=O)OCC(=O)C1(O)CCC2C3CCC4=CC(=O)C=CC4(C)C3CCC21C (configuration not stated)
91 to 92 | COc1ccc(Nc2nc(NC3CC3)nc(NC3CC3)n2)cc1F
174 to 176 | Cc1ccc(S(=O)(=O)NC(=O)Nc2ccc(Cl)cc2)cc1
> 320 | N#Cc1ccc(Cn2c(=O)sc3c(=O)[nH]c(N)nc32)cc1
172 to 174 | O=c1[nH]c(=O)n(Cc2ccccc2)cc1C=NO
140 | CCOCc1nc2c(N)nc3cc(O)ccc3c2n1CC(C)(C)NC(C)=O
132 to 134 | CC(C)(OCc1nn(C2CCCc3ccccc32)c2ccccc12)C(=O)O (configuration not stated)
113 to 115 | Brc1ccc(O[C@H]2CCNC[C@H]2c2ccccc2)cc1 (relative stereo)
153 to 154 | Cc1oc(-c2ccccc2)nc1COc1ccc(COc2ccccc2CC(=O)O)cc1
131 to 133 | CCN(CC)CCN1CCN(c2ccc(N3C[C@H](CNC(C)=O)OC3=O)cc2F)CC1
113 to 115 | Cc1ccc(Oc2ccc(C)cc2C(=O)O)cc1

SMILES | melting point [°C]
CC(C)N1C(=O)N(c2ccc([N+](=O)[O-])c(C(F)(F)F)c2)C(=O)C1(C)C | 130
Cn1cnc2cc(NC(=O)c3cc4cc(F)cnc4n3Cc3cccc(F)c3)ccc21 | 266 to 268
Clc1cccc(C2=CCN(Cc3ccccc3)CC2)n1 | 100 to 102
CCCc1c(C(=O)C(C)C)c2ccc(C(=O)O)cc2n1Cc1ccccc1Br | 193 to 194
O=C(c1cc(Cc2c[nH]cn2)ccc1O)N1CCCC1 | 96 to 98
